Key:
Test in all cases: Test D pre-/postemergence plant response
Type in all cases: in vivo
[1] = tested on: barnyardgrass (Echinochloa crus-galli)
In short: (§1)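 Seeds in loam–sand blend treated preemergence, and plants at 1- to 4-leaf stage (2–18 cm) treated postemergence, with compounds in non-phytotoxic solvent with surfactant. Greenhouse for 14–21 days, then visual rating against controls, 0 (no effect) to 100 (complete control).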

[2] = tested on: bluegrass (annual bluegrass, Poa annua)
In short: as §1

[3] = tested on: dallisgrass (Paspalum dilatatum)
In short: as §1

[4] = tested on: dayflower (Virginia (VA) dayflower, Commelina virginica)
In short: as §1

[5] = tested on: goosegrass (Eleusine indica)
In short: as §1

[6] = tested on: green foxtail (Setaria viridis)
In short: as §1

[7] = tested on: itchgrass (Rottboellia cochinchinensis)
In short: as §1

[8] = tested on: johnsongrass (Sorghum halepense)
In short: as §1

kochia (Kochia scoparia) = tested on: kochia (Kochia scoparia)
In short: as §1

[9] = tested on: mallow (common mallow, Malva sylvestris); conditions: Postemergence
In short: as §1

[10] = tested on: prickly sida (Sida spinosa)
In short: as §1

[11] = tested on: ragweed (common ragweed, Ambrosia elatior)
In short: as §1

[12] = tested on: sandbur (southern sandbur, Cenchrus echinatus)
In short: as §1

[13] = tested on: spanishneedles (Bidens bipinnata)
In short: as §1

[14] = Postemergence, 16 g ai/ha, scale 0 to 100
[15] = Postemergence, 31 g ai/ha, scale 0 to 100 (0 no effect, 100 complete control)
[16] = Postemergence, 125 g ai/ha, scale 0 to 100 (0 no effect, 100 complete control)
[17] = Postemergence, 62 g ai/ha, scale 0 to 100 (0 no effect, 100 complete control)
[18] = Preemergence, 16 g ai/ha, scale 0 to 100, 0 no effect, 100 complete control
[19] = Preemergence, 31 g ai/ha, scale 0 to 100 (0 no effect, 100 complete control)
[20] = Preemergence, 62 g ai/ha, scale 0 to 100
[21] = Preemergence, 125 g ai/ha, scale 0 to 100
[22] = Postemergence, 31 g ai/ha, scale 0 to 100

Cc1ccc(Cl)cc1-n1c(-c2ccccc2)ncc(C(=O)C2=C(O)CCCC2=O)c1=O [Compound 52]
Plant response rating, Barnyardgrass [1, 14]: 75
Plant response rating, Barnyardgrass [1, 15]: 75
Plant response rating, Barnyardgrass [1, 16]: 80
Plant response rating, Barnyardgrass [1, 17]: 75
Plant response rating, Barnyardgrass [1, 18]: 0
Plant response rating, Barnyardgrass [1, 19]: 0
Plant response rating, Barnyardgrass [1, 20]: 0
Plant response rating, Barnyardgrass [1, 21]: 10
Plant response rating, Bluegrass [2, 14]: 15
Plant response rating, Bluegrass [2, 15]: 25
Plant response rating, Bluegrass [2, 16]: 35
Plant response rating, Bluegrass [2, 17]: 35
Plant response rating, Bluegrass [2, 18]: 0
Plant response rating, Bluegrass [2, 19]: 0
Plant response rating, Bluegrass [2, 20]: 0
Plant response rating, Bluegrass [2, 21]: 20
Plant response rating, Dallisgrass [3, 14]: 60
Plant response rating, Dallisgrass [3, 22]: 65
Plant response rating, Dallisgrass [3, 16]: 75
Plant response rating, Dallisgrass [3, 17]: 70
Plant response rating, Dallisgrass [3, 18]: 5
Plant response rating, Dallisgrass [3, 19]: 10
Plant response rating, Dallisgrass [3, 20]: 50
Plant response rating, Dallisgrass [3, 21]: 95
Plant response rating, Dayflower, VA [4, 14]: 5
Plant response rating, Dayflower, VA [4, 22]: 5
Plant response rating, Dayflower, VA [4, 16]: 60
Plant response rating, Dayflower, VA [4, 17]: 30
Plant response rating, Dayflower, VA [4, 18]: 0
Plant response rating, Dayflower, VA [4, 19]: 0
Plant response rating, Dayflower, VA [4, 20]: 0
Plant response rating, Dayflower, VA [4, 21]: 40
Plant response rating, Goosegrass [5, 14]: 65
Plant response rating, Goosegrass [5, 22]: 75
Plant response rating, Goosegrass [5, 16]: 80
Plant response rating, Goosegrass [5, 17]: 75
Plant response rating, Goosegrass [5, 18]: 5
Plant response rating, Goosegrass [5, 19]: 60
Plant response rating, Goosegrass [5, 20]: 80
Plant response rating, Goosegrass [5, 21]: 98
Plant response rating, Foxtail, Green [6, 14]: 70
Plant response rating, Foxtail, Green [6, 22]: 70
Plant response rating, Foxtail, Green [6, 16]: 95
Plant response rating, Foxtail, Green [6, 17]: 85
Plant response rating, Foxtail, Green [6, 18]: 0
Plant response rating, Foxtail, Green [6, 19]: 0
Plant response rating, Foxtail, Green [6, 20]: 0
Plant response rating, Foxtail, Green [6, 21]: 15
Plant response rating, Itchgrass [7, 14]: 25
Plant response rating, Itchgrass [7, 22]: 50
Plant response rating, Itchgrass [7, 16]: 65
Plant response rating, Itchgrass [7, 17]: 65
Plant response rating, Itchgrass [7, 18]: 0
Plant response rating, Itchgrass [7, 19]: 0
Plant response rating, Itchgrass [7, 20]: 0
Plant response rating, Itchgrass [7, 21]: 5
Plant response rating, Johnsongrass [8, 14]: 65
Plant response rating, Johnsongrass [8, 22]: 75
Plant response rating, Johnsongrass [8, 17]: 85
Plant response rating, Johnsongrass [8, 18]: 0
Plant response rating, Johnsongrass [8, 19]: 0
Plant response rating, Johnsongrass [8, 20]: 75
Plant response rating, Johnsongrass [8, 21]: 95
Plant response rating, Kochia (kochia (Kochia scoparia); [14]): 0
Plant response rating, Kochia (kochia (Kochia scoparia); [22]): 0
Plant response rating, Kochia (kochia (Kochia scoparia); [16]): 40
Plant response rating, Kochia (kochia (Kochia scoparia); [17]): 0
Plant response rating, Kochia (kochia (Kochia scoparia); [19]): 25
Plant response rating, Kochia (kochia (Kochia scoparia); [20]): 25
Plant response rating, Kochia (kochia (Kochia scoparia); [21]): 35
Plant response rating, Mallow ([9]; 16 g ai/ha, scale 0 to 100): 50
Plant response rating, Mallow ([9]; 31 g ai/ha, scale 0 to 100): 65
Plant response rating, Mallow ([9]; 125 g ai/ha, scale 0 to 100 (0 no effect, 100 complete control)): 75
Plant response rating, Mallow ([9]; 62 g ai/ha, scale 0 to 100 (0 no effect, 100 complete control)): 65
Plant response rating, Prickly Sida [10, 14]: 65
Plant response rating, Prickly Sida [10, 22]: 65
Plant response rating, Prickly Sida [10, 16]: 90
Plant response rating, Prickly Sida [10, 17]: 80
Plant response rating, Prickly Sida [10, 18]: 0
Plant response rating, Prickly Sida [10, 19]: 0
Plant response rating, Prickly Sida [10, 20]: 50
Plant response rating, Prickly Sida [10, 21]: 100
Plant response rating, Ragweed [11, 14]: 90
Plant response rating, Ragweed [11, 22]: 95
Plant response rating, Ragweed [11, 16]: 95
Plant response rating, Ragweed [11, 17]: 95
Plant response rating, Ragweed [11, 18]: 30
Plant response rating, Ragweed [11, 19]: 50
Plant response rating, Ragweed [11, 21]: 98
Plant response rating, Sandbur [12, 14]: 65
Plant response rating, Sandbur [12, 22]: 65
Plant response rating, Sandbur [12, 16]: 80
Plant response rating, Sandbur [12, 17]: 75
Plant response rating, Sandbur [12, 18]: 0
Plant response rating, Sandbur [12, 19]: 0
Plant response rating, Sandbur [12, 21]: 98
Plant response rating, Spanishneedles [13, 14]: 75
Plant response rating, Spanishneedles [13, 22]: 75
Plant response rating, Spanishneedles [13, 16]: 80
Plant response rating, Spanishneedles [13, 17]: 80
Plant response rating, Spanishneedles [13, 18]: 35
Plant response rating, Spanishneedles [13, 19]: 70
Plant response rating, Spanishneedles [13, 21]: 98

— patent US8952024B2, “Herbicidal pyrimidone derivatives” (E I du Pont de Nemours and Company, priority 2009, dated 2015)
